# Assay results as given in paper PMC6460286 (Biochimie, 2017).
# Like-named read-outs stand apart in the source and are kept apart here.
# What was measured:
# [1] = system: HIF PHD (HIF1 ODD-luc reporter); details: specific for HIF PHD; cited from earlier work
# [2] = system: HIF-1 target genes (VEGF, HO-1), HIF1α, NQO-1; assay: RT-PCR of HIF1 target genes in N2a cells; assay type: cell-based, mouse; details: 4 h
# [3] = system: HIF PHD (HIF1 ODD-luc reporter); assay: HIF1 ODD-luc reporter assay in SH-SY5Y cells; assay type: cell-based; details: for effect on HIF1 ODD-luc reporter activation induced by Compound 8a: agents applied in equal concentration; for effect on reporter activation by HIF PHD inhibitors of various nature: NAC up to millimolar concentrations
# [4] = Potassium ferricyanide reduction; assay type: physicochemical; details: 1 mM agent, 1 mM potassium ferricyanide, 50 mM Tris-HCl buffer, pH 7.4
# HIF1 and HIF2 = details: cited from earlier work
# PHD2 = details: ref 36 (FG-4592), ref 37 (IOX2); cited from earlier work
# HIF PHD = details: cited from earlier work
# HIF = details: cited from earlier work
# [5] = 3 h incubation, physiological L-Asc (0.04–0.1 mM)
# [6] = reporter activation by Compound 8a
compound,measurement,setting,value
"Oc1cccnc1NC(c1ccc(Cl)cc1)c1ccc2cccnc2c1O (stereo not drawn) [Compound 8, adaptaquin]",EC50,[1],~2000 nM
"O=C1O[C@H]([C@H](O)CO)C(O)=C1O [D-Asc, D-isoascorbic acid]",inhibition of HIF1 target gene activation,[2]; 100 μM co-treatment with 5 μM Compound 8a,under 10%
same,effect on HIF1 ODD-luc reporter activation induced by Compound 8a,[3]; 3 h incubation,neither D-Asc nor NAC applied in the equal concentration cause any change
same,effect on reporter activation by HIF PHD inhibitors of various nature,[3],"minor effect, if any"
same,"reducing power (ferricyanide reduction kinetics), L-Asc vs D-Asc",[4],no difference in reduction kinetics
"CCOC(=O)c1ccc(O)c(O)c1 [DHB, Ethyl 3,4-dihydroxybenzoate]",suppressing effect of L-Asc on reporter activation induced by the inhibitor,[3]; [5],very sensitive to L-Asc
same,EC50,[3]; read-out: EC50 of reporter activation,250 µM
"COC(=O)CNC(=O)C(=O)OC [DMOG, dimethyloxalyl glycine]",working concentration resulting in HIF1 and HIF2 stabilization,HIF1 and HIF2; after 2 h incubation,ca. 1 mM
same,suppressing effect of L-Asc on reporter activation induced by the inhibitor,[3]; [5],pronounced for DMOG up to 250 μM
same,suppressing effect of L-Asc on reporter activation induced by the inhibitor,"[3]; higher DMOG concentrations (mM range), not shown",negligible
Cc1nc(C(=O)NCC(=O)O)c(O)c2ccc(Oc3ccccc3)cc12 [FG-4592],suppressing effect of L-Asc on reporter activation induced by the inhibitor,[3]; [5],minimal
same,concentration above which toxicity is seen,"[3]; titration up to 0.6 mM, Supplementary Fig. S2",above 100 μM
O=C(O)CNC(=O)c1c(O)c2ccccc2n(Cc2ccccc2)c1=O [IOX2],"inhibition constant, homogeneous enzyme assay with PHD2",PHD2,nanomolar range
same,suppressing effect of L-Asc on reporter activation induced by the inhibitor,[3]; [5],minimal
"O=C1O[C@H]([C@@H](O)CO)C(O)=C1O [L-Asc, L-ascorbic acid]",effect of L-Asc alone on expression of HIF1 target genes,[2]; 100 μM,no changes
same,L-Asc effect on HIF stabilization induced by 1 mM monomethyloxalylglycine,HIF1 and HIF2; immunoblotting,absence of L-Asc effect
same,Km,HIF PHD,~50 µM
same,effect on HIF1 ODD-luc reporter activation induced by Compound 8a,[3]; 3 h incubation,potently suppresses
same,L-Asc concentration at which suppression is already observed,[3]; [6],10 µM
same,concentration above which L-Asc effect shows saturation,[3]; [6],above 40 μM
same,drop in magnitude of reporter activation with increase in L-Asc concentration,[3]; [6],2.5 fold
same,increase in EC50 of Compound 8a with increase in L-Asc concentration,[3]; [6],ca. 1.5 fold
same,"reducing power (ferricyanide reduction kinetics), L-Asc vs D-Asc",[4],no difference in reduction kinetics
same,concentration giving the comparable suppressive effect on HIF stability,HIF,50 µM
"CC(=O)N[C@@H](CS)C(=O)O [NAC, N-acetylcysteine]",effect on HIF1 ODD-luc reporter activation induced by Compound 8a,[3]; 3 h incubation,neither D-Asc nor NAC applied in the equal concentration cause any change
same,suppressing effect on reporter activation,"[3]; NAC up to 1 mM, either drug, not shown",no suppressing effect
same,effect on reporter activation by HIF PHD inhibitors of various nature,[3],no effect
